Drawing on patent US11485740B2, “Inhibitors of TRPC6” (Boehringer Ingelheim International GmbH, priority 2018, dated 2022), this text covers IC50 for 13 molecules.

For the test, the target named is T1, human TRPC6 (Homo sapiens, UniProt Q9Y210).
T1 construct: expressed in transfected cells
T1 sequence (Q9Y210 1-931): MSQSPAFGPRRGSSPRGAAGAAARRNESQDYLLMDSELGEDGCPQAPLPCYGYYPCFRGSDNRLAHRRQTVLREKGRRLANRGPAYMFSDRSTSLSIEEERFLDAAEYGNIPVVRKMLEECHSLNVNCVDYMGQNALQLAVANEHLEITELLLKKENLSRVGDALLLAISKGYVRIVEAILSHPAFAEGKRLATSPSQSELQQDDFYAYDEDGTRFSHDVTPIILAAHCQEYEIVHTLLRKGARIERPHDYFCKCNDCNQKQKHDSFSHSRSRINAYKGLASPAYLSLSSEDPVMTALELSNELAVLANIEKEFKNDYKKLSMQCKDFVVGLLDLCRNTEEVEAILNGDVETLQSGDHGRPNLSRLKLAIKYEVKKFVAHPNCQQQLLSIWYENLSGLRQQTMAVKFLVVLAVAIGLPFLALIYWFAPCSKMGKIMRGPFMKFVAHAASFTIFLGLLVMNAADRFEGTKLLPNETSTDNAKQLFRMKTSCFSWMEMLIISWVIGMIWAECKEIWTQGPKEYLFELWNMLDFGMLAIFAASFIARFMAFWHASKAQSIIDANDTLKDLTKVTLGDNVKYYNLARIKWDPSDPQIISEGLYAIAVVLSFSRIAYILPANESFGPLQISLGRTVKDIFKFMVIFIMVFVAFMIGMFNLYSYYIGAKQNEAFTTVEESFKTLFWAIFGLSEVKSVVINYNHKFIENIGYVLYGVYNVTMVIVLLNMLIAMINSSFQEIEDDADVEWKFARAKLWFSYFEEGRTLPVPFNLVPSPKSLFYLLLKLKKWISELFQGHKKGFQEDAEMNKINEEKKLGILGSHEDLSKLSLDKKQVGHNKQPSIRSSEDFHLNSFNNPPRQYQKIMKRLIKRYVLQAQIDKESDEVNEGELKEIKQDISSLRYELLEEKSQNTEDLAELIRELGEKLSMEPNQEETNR
Nature of the test: High throughput screening assay: Fluo4/AM calcium fluorescence in HEK293/TREx cells expressing human TRPC6, agonist GSK1702934A (single concentration 10 μM and IC50 curves). Particulars: antagonist effect against human TRPC6, 7 concentrations 20 μM to 0.027 μM, triplicate. Format: cell-based. The gist of the method:
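HEK293/TREx cells stably carrying tetracycline-induced (1 μg/ml) human TRPC6, loaded with Fluo4/AM (0.5 μM, 60 min, RT), pretreated 2 min with compound (10 μM final in screen), then stimulated with GSK1702934A in high-Ca2+ Ringer's (20 mM Ca2+ final). Fluorescence ratio over ~3 min normalized to no-compound and control-blocker wells; IC50 from triplicate curves.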
Consider `COc1ccc(-c2cnc(C(=O)N3CCC(c4ccc(N)nn4)CC3)cc2OC)cn1` [Compound 46, [4-(6-Amino-pyridazin-3-yl)-piperidin-1-yl]-(4,6′-dimethoxy-[3,3′]bipyridinyl-6-yl)-methanone], for which the IC50 was determined as 4 µM.

Turning to `CCOc1ccc(-c2cnc(C(=O)N3CCC(c4ccc(N)nn4)CC3)cc2OC)cc1` [Compound 37, [4-(6-Amino-pyridazin-3-yl)-piperidin-1-yl]-[5-(4-ethoxy-phenyl)-4-methoxy-pyridin-2-yl]-methanone], the IC50 was 0.32 µM. The value for `COc1cc(C(=O)N2CCC(c3ccc(N)nc3)CC2)ncc1-c1ccccc1` [Compound 71, 5-[1-(4-Methoxy-5-phenylpyridine-2-carbonyl)piperidin-4-yl]pyridin-2-amine] was 0.027 µM; that for `COc1cc(C(=O)N2CCN(c3cnc(N)cc3OC)C[C@@H]2CO)ncc1-c1ccc(C(F)(F)F)cc1` [Compound 95, [(R)-4-(6-Amino-4-methoxy-pyridin-3-yl)-2-hydroxymethyl-piperazin-1-yl]-[4-methoxy-5-(4-trifluoromethyl-phenyl)-pyridin-2-yl]-methanone] was 0.58 µM; that for `COc1cc(C(=O)N2CCC(c3ccc(N)nn3)CC2)ccc1-c1ccc(OCC2(C)CC2)nc1` [Compound 79, 6-[1-(3-Methoxy-4-{6-[(1-methylcyclopropyl)methoxy]pyridin-3-yl}benzoyl)piperidin-4-yl]pyridazin-3-amine] was 0.12 µM. The value for `COC[C@H]1CN(c2cnc(N)cc2OC)CCN1C(=O)c1cc(OC)c(-c2ccccc2)cn1` [Compound 100, [(R)-4-(6-Amino-4-methoxy-pyridin-3-yl)-2-methoxymethyl-piperazin-1-yl]-(4-methoxy-5-phenyl-pyridin-2-yl)-methanone] was 0.23 µM; that for `COc1cc(C(=O)N2CCC(c3cnc(N)cc3OC)CC2)ncc1-c1ccc(C(F)(F)F)cc1` [Compound 84, (6-Amino-4-methoxy-3′,4′,5′,6′-tetrahydro-2′H-[3,4′]bipyridinyl-1′-yl)-[4-methoxy-5-(4-trifluoromethyl-phenyl)-pyridin-2-yl]-methanone] was 0.13 µM.

`COc1cc(C(=O)N2CCC(c3ccc(N)nn3)CC2)ncc1-c1ccc(Cl)cc1` [Compound 40, [4-(6-Amino-pyridazin-3-yl)-piperidin-1-yl]-[5-(4-chloro-phenyl)-4-methoxy-pyridin-2-yl]-methanone]: the IC50 amounted to 0.073 µM. The value for `Nc1ccc(N2CCN(C(=O)c3ccc(-c4ccc(C(F)(F)F)cc4)cc3)CC2)cn1` [Compound 12, [4-(6-Amino-pyridin-3-yl)-piperazin-1-yl]-(4′-trifluoromethyl-biphenyl-4-yl)-methanone] was 2.4 µM; that for `COc1cc(C(=O)N2CCC(c3ccc(N)nn3)CC2)ncc1-c1cccc(F)c1` [Compound 35, 6-{1-[5-(3-Fluorophenyl)-4-methoxypyridine-2-carbonyl]piperidin-4-yl}pyridazin-3-amine] was 0.22 µM; that for `Nc1ccc(C2CCN(C(=O)c3ccc(-c4cccc(F)c4)cc3)CC2)nn1` [Compound 8, [4-(6-Amino-pyridazin-3-yl)-piperidin-1-yl]-(3′-fluoro-biphenyl-4-yl)-methanone] was 6.7 µM. The value for `COc1cc(C(=O)N2CCC(c3ccc(N)nn3)CC2)ncc1-c1ccc(C(F)(F)F)c(F)c1` [Compound 26, [4-(6-Amino-pyridazin-3-yl)-piperidin-1-yl]-[5-(3-fluoro-4-trifluoromethyl-phenyl)-4-methoxy-pyridin-2-yl]-methanone] was 0.058 µM; that for `COc1cc(C(=O)N2CCC(c3ccc(N)nn3)CC2)ncc1-c1ccc2c(c1)OCCO2` [Compound 22, [4-(6-Amino-pyridazin-3-yl)-piperidin-1-yl]-[5-(2,3-dihydro-benzo[l ,4]dioxin-6-yl)-4-methoxy-pyridin-2-yl]-methanone] was 0.43 µM.

For orientation: IC50 means the concentration that gives 50% inhibition.
